≈ marks a conversion by molar mass, not a printed value.
Legend:
tubulin = tubulin depolymerization assay; assay type: biochemical; settings: for IC50: in vitro, read-out: ID₅₀(µM) in tubulin depolymerization assay
Source text: Taxol (1), the Meerwein product (4), the acetyl chloride product (7), and A-Nor-Taxol (10) were also subjected to tubulin depolymerization assays with the results presented in Table XVI below.

KB cells = experiment: KB cell culture assay; assay type: cell-based; settings: ED₅₀ of less than 4.0 indicates activity; for EC50: Homo sapiens, read-out: ED⁵⁰ (µg/ml) cell culture
Procedure: Taxol (1), the Meerwein product (4), the acetyl chloride product (7), and A-nor-taxol (10) were tested in KB cell culture assays. […]

| Compound | IC50 (tubulin) [µM] | activity in the tubulin depolymerization assay compared with taxol (tubulin; result in words) | EC50 (KB cells) [µg/mL] | ED⁵⁰ (µg/ml) cell culture (KB cells) [µg/mL] |
| --- | --- | --- | --- | --- |
| C=C(C)C12CC(OC(=O)C(O)C(NC(=O)c3ccccc3)c3ccccc3)C(C)=C1C(OC(C)=O)C(=O)C1(C)C(O)CC3OCC3(OC(C)=O)C1C2OC(=O)c1ccccc1 (stereo not drawn) [A-Nortaxol (10), A-Nortaxol] | 0.9 | very similar to taxol | 2 (≈ 2.39 µM) | – |
| CC(=O)O[C@H]1C(=O)[C@@]2(C)[C@H]([C@H](OC(=O)c3ccccc3)[C@]3(O)C[C@H](OC(=O)[C@H](O)[C@@H](NC(=O)c4ccccc4)c4ccccc4)C(C)=C1C3(C)C)[C@]1(OC(C)=O)CO[C@@H]1C[C@@H]2O [Taxol (1), taxol] | 0.3 | – | 1e-05 (≈ 1.17e-05 µM) | – |
| acetylated A-Nor-D-seco-taxol [Acetyl Chloride product (7)] | – | – | – | 2.5 |

Reference: patent EP0505047B1, “Rearranged taxol compounds and method of using in testing of in vivo activity” (VIRGINIA TECH INTELLECTUAL PROPERTIES, INC., priority 1991, dated 1992)
